Reference: patent US20260258420A1, “COMPOSITIONS AND METHODS FOR THE TREATMENT OF HUMAN PAPILLOMAVIRUS-DRIVEN CANCERS” (priority 2023, published 2026)

Experiments:
[1] = test system: two HPV-positive cell lines transfected with E7 siRNA; assay: Apoptosis immunoblot in HPV-positive cells with E7 siRNA; format: cell-based; conditions: 300 nmol/L, 24 hours
Description: Each data point represents 1 cell line. Box plots show the median pRb […] levels and 95% confidence intervals across all cell lines in the category. t-test P=0.0097. FIG. 4B, HPV-negative HNSCC cells (HN31, UMSCC4, and MDA886LN) were infected with distinct, lentivirus-based shRNAs (Sh2, Sh4, and Sh6) to stably knock down the expression of RB1 or were treated with control (Ctrl) shRNA. Cells were then treated with 300 nmol/L alisertib for 24 hours before annexin V-PE/7AAD staining and analysis with flow cytometry. The bar graph represents the ratio of apoptosis (late plus early) among different groups. Values are the means±the standard deviations for 3 independent experiments. *P<0.05; **P<0.005; unpaired, 2-tailed Student t-test. FIG. 4C, cells from FIG. 4B were treated with 300 nmol/L alisertib for 24 hours before lysis and immunoblotting with the indicated antibodies. FIG. 4D-E, HN31 cells were stably transfected with an E7 plasmid and treated with 300 nmol/L alisertib for 24 hours before lysis and immunoblotting with (FIG. 4D) the indicated antibodies or (FIG. 4E) annexin-PE staining to measure apoptosis. Values are the means±the standard deviations for 3 independent experiments. ** P≤0.01; *** P≤0.001. FIG. 4F, two HPV-positive cell lines were transfected with 10 nmol/L siRNA oligonucleotides specific to E7 or with control oligonucleotides. […]

[2] = test system: HPV-negative UMSCC22A cells; assay: In vivo tumor growth, HPV-negative xenograft; parameters: species or system mice; conditions: 10 mg/kg oral gavage 5 days per week for 21 days, high Rb protein levels
Description: PDX tumors HOSC144 (FIG. 3A, FIG. 3E, FIG. 3F), HOSC19 (FIG. 3B), and HOSC156 (FIG. 3C) were implanted into the flanks of nude mice. After engraftment, mice were randomized and assigned into 1 of 2 treatment groups: vehicle (β-cyclodextrin, n=8) or alisertib (10 mg/kg, n=8). Mice were treated for 3 weeks by daily oral gavage. Tumor size was measured twice a week. FIG. 3A, FIG. 3B, and FIG. 3C show in vivo tumor growth curves for individual mice (left 3 panels). Survival (right panels) was measured using the Kaplan-Meier method. In FIG. 3D, HPV-negative UMSCC22A cells were injected subcutaneously (3×10^6 cells) on the right flanks of the mice. Once the tumor volume reached ≥60 mm^3, mice were randomized into treatment groups. Mice were treated with vehicle or 10 mg/kg alisertib by oral gavage for 5 days per week for 21 days. Tumor size was measured twice a week. […] The Ki67(%) was calculated as the ratio of proliferative cells to total cells in each field, using five random fields. […] The apoptotic (%) was calculated as the ratio of apoptotic cells to total cells in each field, using five random fields in HOSC144 PDX tumors after 8 or 21 days of treatment with either vehicle or alisertib. ** P≤0.01; *** P≤0.001. Bars, […]. […]

[3] = test system: HPV-negative cancer cell lines (UMSCC19, FaDu, and HN31); assay: BrdU-TUNEL apoptosis assay, HPV-negative cell lines; format: cell-based; conditions: 50 nmol/L barasertib or 200 nmol/L alisertib, 72 hours or 2 doubling times
Description: BrdU positive apoptotic cells were detected and quantified. The bar graph indicates the percentage of apoptotic cells with fragmented DNA in HPV-positive and HPV-negative cell lines. Values are the means±the standard deviations for 3 independent experiments. FIG. 2B and FIG. 2C show immunoblots of cleaved PARP (Cl. PARP) and cleaved caspase-3 (Cl. Caspase-3) levels in 3-HPV positive and 3 HPV-negative cell lines after barasertib or alisertib treatment for 2 doubling times (FIG. 2B) or 72 hours (FIG. 2C). […] UM47, UMSCC47; GAPDH, glyceraldehyde 3-phosphate dehydrogenase.
To measure apoptosis, TUNEL staining was performed with an APO-BRDU Kit (BD Biosciences, San Jose, CA) and annexin V/propidium iodide staining with an FITC Annexin V Apoptosis Detection Kit PE (eBioscience, San Diego, CA) as described previously (Kalu, et al., Cancer Lett 2018; 431:64-72). […] Data were acquired with a 3-laser, 10-color Gallios flow cytometer (Beckman Coulter, Brea, CA) and analyzed using Kaluza software, RRID:SCR_016182 (Beckman Coulter, Brea, CA). […] Briefly, after drug treatment, cells were incubated with Senescence Green Probe, a fluorescence-based reagent that contains 2 galactoside moieties that make it specific to […]. The enzyme-cleaved product is retained within the cell, and it emits a fluorogenic signal that was measured at 490/514 nm using a flow cytometer. […]

## COc1cc(Nc2ncc3c(n2)-c2ccc(Cl)cc2C(c2c(F)cccc2OC)=NC3)ccc1C(=O)O [ALISERTIB, alisertib]
[1]
  apoptosis with and without E7 knockdown (increased Rb expression): caused apoptosis in the HPV-positive cell lines but not in the same cells with increased Rb expression
[2]
  tumor response: resistant
[3]
  apoptosis (TUNEL): no appreciable levels of apoptosis
